Columns and labels:
Format in all cases: in vivo
[1] = system: Spring Wheat “Teal”; assay: Test 1B glasshouse assay, post-emergence herbicidal activity against cereal crops; settings: 14 DAA
Experimental: (§1) Biological Example 1B tests the herbicidal activity of“technical” compounds (i.e. compounds not previously formulated before the test), as the herbicides under test.
(§2) An “instant formulation”, known as the “IF50”, containing 50 g/liter (i.e. 5% w/v) of the “technical” (i.e. unformulated) active ingredient (i.e. the herbicide under test), is prepared by dissolving the active ingredient in a mixture of organic solvents and emulsifier, details of which are provided in the Table below.
(§3) This IF50 is mixed with a small, variable amount of acetone to aid dissolution, before addition of a 0.5% v/v aqueous solution of the adjuvant Adigor™ (an adjuvant containing rapeseed oil methyl ester, ethoxylated alcohols, and a mixture of heavy aromatic hydrocarbons, e.g. available from Syngenta), as the aqueous diluent, to form an aqueous spray solution which contains a predetermined concentration of the active ingredient (which varies depending on the application rate of the active ingredient to the plants) and 0.5% v/v of the adjuvant Adigor™. This aqueous spray solution is suitable for spraying onto plants.
(§4) Seeds of a variety of test species are sown in standard soil in pots. After cultivation for 14 days under controlled conditions in a glasshouse (at 22/16° C., day/night; 16 hours light; 65% humidity), the plants are sprayed post-emergence with the above-mentioned aqueous spray solution containing inter alia the “technical” active ingredient (i.e. the herbicide under test) and the adjuvant Adigor™.
(§5) The test plants are then grown on under controlled conditions in the glasshouse (at 22/16° C., day/night; 16 hours light; 65% humidity) and are watered twice daily. 14 days after application of the test herbicide, the test is evaluated visually for percentage phytotoxicity to the plant (where 100%=total damage to plant; 0%=no damage to plant).
(§6) More specifically, post-emergence herbicidal activity (phytotoxicity) data, on certain tested grassy monocotyledonous weeds (and/or plants of the type Gramineae) and cereal crops in the glasshouse, are measured 14 days after application of the herbicide (14 DAA), typically for inter alia one or more of the following application rates: • (a) a post-emergence application rate of 60 g/ha of the test herbicide with or without 50 g/ha of cloquintocet-mexyl safener, and • (b) a post-emergence application rate of 90 g/ha of the test herbicide with 50 g/ha of cloquintocet-mexyl safener, and • (c) a post-emergence application rate of 120 g/ha of the test herbicide with 50 g/ha of cloquintocet-mexyl safener.
(§7) The cloquintocet-mexyl, when used, is present in the formulation containing the herbicide under test dissolved in acetone plus IF50.
(§8) The range of herbicide application rates tested sometimes includes application rates other than those shown above, and the rates can vary depending on the herbicide under test.
(§9) Herbicidal activity (phytotoxicity) is evaluated visually, and an assessed percentage phytotoxicity score is given for each herbicidal application on each plant species (with 100%=total damage to plant; 0%=no damage to plant; the assessment is recorded in increments of 1%). Two replicates are made for each experiment, and the mean herbicidal activity (phytotoxicity) data is reported.

[2] = system: Spring Barley “Harrington”; assay: as above; settings: for Post-emergence herbicidal activity against cereal crops, percentage phytotoxicity, Spring Barley “Harrington”: 14 DAA
Experimental: as §1, §2, §3, §4, §5, §6, §7, §8, §9

[3] = system: Winter Barley “Suzuka”; assay: as above; settings: for Post-emergence herbicidal activity against cereal crops, percentage phytotoxicity, Winter Barley “Suzuka”: 14 DAA
Experimental: as §1, §2, §3, §4, §5, §6, §7, §8, §9

[4] = system: Winter Wheat “Hereward”; assay: as above; settings: for Post-emergence herbicidal activity against cereal crops, percentage phytotoxicity, Winter Wheat “Hereward”: 14 DAA
Experimental: as §1, §2, §3, §4, §5, §6, §7, §8, §9

[5] = system: Alopecurus myosuroides (ALOMY); assay: Test 1B glasshouse assay, post-emergence herbicidal activity against grassy weeds; settings: 14 DAA
Experimental: as §1, §2, §3, §4, §5, §6, §7, §8, §9
(§10) For compounds A34, A98, A99, A87, A100, A101, A89, A120, A120A, A120B, A23, A127, A128, A89, A112 and A113 the tested weeds were as follows: Avena fatua (AVEFA), Lolium multiflorum (LOLMU), Setaria viridis (SETVI), Poa annua (POAAN), Alopecurus myosuroides (ALOMY). All five of these are grassy monocotyledonous weeds. Except for SETVI, these are all “cool-season” grassy monocotyledonous weeds.

[6] = system: Avena fatua (AVEFA); assay: as above; settings: 14 DAA
Experimental: as §1, §2, §3, §4, §5, §6, §7, §8, §9, §10

[7] = system: Lolium multiflorum (LOLMU); assay: as above; settings: 14 DAA
Experimental: as §1, §2, §3, §4, §5, §6, §7, §8, §9, §10

[8] = system: Poa annua (POAAN); assay: as above; settings: 14 DAA
Experimental: as §1, §2, §3, §4, §5, §6, §7, §8, §9, §10

[9] = system: Setaria viridis (SETVI); assay: as above; settings: 14 DAA
Experimental: as §1, §2, §3, §4, §5, §6, §7, §8, §9, §10

[10] = 60 g/ha herbicide, 0 g/ha cloquintocet-mexyl, test result no. 1 (T1)
[11] = 60 g/ha herbicide, 50 g/ha cloquintocet-mexyl, test result no. 1 (T1)
[12] = 60 g/ha herbicide, 50 g/ha cloquintocet-mexyl, test result no. 2 (T2)
[13] = 90 g/ha herbicide, 50 g/ha cloquintocet-mexyl, test result no. 2 (T2)
[14] = 120 g/ha herbicide, 50 g/ha cloquintocet-mexyl, test result no. 2 (T2)
[15] = herbicide 30 g/ha, cloquintocet-mexyl 50 g/ha
[16] = herbicide 45 g/ha, cloquintocet-mexyl 50 g/ha
[17] = herbicide 60 g/ha, cloquintocet-mexyl 0 g/ha
[18] = herbicide 60 g/ha, cloquintocet-mexyl 50 g/ha
[19] = 30 g/ha herbicide, 50 g/ha cloquintocet-mexyl
[20] = 45 g/ha herbicide, 50 g/ha cloquintocet-mexyl
[21] = 60 g/ha herbicide, 0 g/ha cloquintocet-mexyl
[22] = 60 g/ha herbicide, 50 g/ha cloquintocet-mexyl

Cc1cc(-n2cc(Cl)cn2)cc(C)c1C1C(=O)C[C@H](CCNC(=O)c2ccccn2)C1=O (some centres unmarked) [Compound A99]
Post-emergence herbicidal activity against cereal crops, percentage phytotoxicity, Spring Wheat “Teal” [1, 10]: 2 (T1) %
Post-emergence herbicidal activity against cereal crops, percentage phytotoxicity, Spring Wheat “Teal” [1, 11]: 1 (T1); %
Post-emergence herbicidal activity against cereal crops, percentage phytotoxicity, Spring Wheat “Teal” [1, 12]: 5 (T2) %
Post-emergence herbicidal activity against cereal crops, percentage phytotoxicity, Spring Wheat “Teal” [1, 13]: 5 (T2) %
Post-emergence herbicidal activity against cereal crops, percentage phytotoxicity, Spring Wheat “Teal” [1, 14]: 8 (T2) %
Post-emergence herbicidal activity against cereal crops, percentage phytotoxicity, Spring Barley “Harrington” [2, 10]: 15 (T1) %
Post-emergence herbicidal activity against cereal crops, percentage phytotoxicity, Spring Barley “Harrington” [2, 11]: 3 (T1); %
Post-emergence herbicidal activity against cereal crops, percentage phytotoxicity, Spring Barley “Harrington” [2, 12]: 3 (T2) %
Post-emergence herbicidal activity against cereal crops, percentage phytotoxicity, Spring Barley “Harrington” [2, 13]: 5 (T2) %
Post-emergence herbicidal activity against cereal crops, percentage phytotoxicity, Spring Barley “Harrington” [2, 14]: 8 (T2) %
Post-emergence herbicidal activity against cereal crops, percentage phytotoxicity, Winter Barley “Suzuka” [3, 10]: 60 (T1) %
Post-emergence herbicidal activity against cereal crops, percentage phytotoxicity, Winter Barley “Suzuka” [3, 11]: 15 (T1); %
Post-emergence herbicidal activity against cereal crops, percentage phytotoxicity, Winter Barley “Suzuka” [3, 12]: 14 (T2) %
Post-emergence herbicidal activity against cereal crops, percentage phytotoxicity, Winter Barley “Suzuka” [3, 13]: 35 (T2) %
Post-emergence herbicidal activity against cereal crops, percentage phytotoxicity, Winter Barley “Suzuka” [3, 14]: 38 (T2) %
Post-emergence herbicidal activity against cereal crops, percentage phytotoxicity, Winter Wheat “Hereward” [4, 10]: 0 (T1) %
Post-emergence herbicidal activity against cereal crops, percentage phytotoxicity, Winter Wheat “Hereward” [4, 11]: 1 (T1); %
Post-emergence herbicidal activity against cereal crops, percentage phytotoxicity, Winter Wheat “Hereward” [4, 12]: 0 (T2) %
Post-emergence herbicidal activity against cereal crops, percentage phytotoxicity, Winter Wheat “Hereward” [4, 13]: 0 (T2) %
Post-emergence herbicidal activity against cereal crops, percentage phytotoxicity, Winter Wheat “Hereward” [4, 14]: 8 (T2) %
Post-emergence herbicidal activity, percentage phytotoxicity, ALOMY [5, 10]: 50 (T1) %
Post-emergence herbicidal activity, percentage phytotoxicity, ALOMY [5, 11]: 35 (T1); %
Post-emergence herbicidal activity, percentage phytotoxicity, ALOMY [5, 12]: 38 (T2) %
Post-emergence herbicidal activity, percentage phytotoxicity, ALOMY [5, 13]: 58 (T2) %
Post-emergence herbicidal activity, percentage phytotoxicity, ALOMY [5, 14]: 73 (T2) %
Post-emergence herbicidal activity, percentage phytotoxicity, AVEFA [6, 10]: 50 (T1) %
Post-emergence herbicidal activity, percentage phytotoxicity, AVEFA [6, 11]: 40 (T1); %
Post-emergence herbicidal activity, percentage phytotoxicity, AVEFA [6, 12]: 48 (T2) %
Post-emergence herbicidal activity, percentage phytotoxicity, AVEFA [6, 13]: 60 (T2) %
Post-emergence herbicidal activity, percentage phytotoxicity, AVEFA [6, 14]: 78 (T2) %
Post-emergence herbicidal activity, percentage phytotoxicity, LOLMU [7, 10]: 35 (T1) %
Post-emergence herbicidal activity, percentage phytotoxicity, LOLMU [7, 11]: 35 (T1); %
Post-emergence herbicidal activity, percentage phytotoxicity, LOLMU [7, 12]: 55 (T2) %
Post-emergence herbicidal activity, percentage phytotoxicity, LOLMU [7, 13]: 65 (T2) %
Post-emergence herbicidal activity, percentage phytotoxicity, LOLMU [7, 14]: 78 (T2) %
Post-emergence herbicidal activity, percentage phytotoxicity, POAAN [8, 10]: 70 (T1) %
Post-emergence herbicidal activity, percentage phytotoxicity, POAAN [8, 11]: 73 (T1); %
Post-emergence herbicidal activity, percentage phytotoxicity, POAAN [8, 12]: 70 (T2) %
Post-emergence herbicidal activity, percentage phytotoxicity, POAAN [8, 13]: 73 (T2) %
Post-emergence herbicidal activity, percentage phytotoxicity, POAAN [8, 14]: 75 (T2) %
Post-emergence herbicidal activity, percentage phytotoxicity, SETVI [9, 10]: 10 (T1) %
Post-emergence herbicidal activity, percentage phytotoxicity, SETVI [9, 11]: 8 (T1); %
Post-emergence herbicidal activity, percentage phytotoxicity, SETVI [9, 12]: 33 (T2) %
Post-emergence herbicidal activity, percentage phytotoxicity, SETVI [9, 13]: 68 (T2) %
Post-emergence herbicidal activity, percentage phytotoxicity, SETVI [9, 14]: 75 (T2) %

Cc1cc(C)c(C2C(=O)C[C@H](CCNC(=O)c3ccc(Br)cn3)C2=O)c(C)c1 (some centres unmarked) [Compound A120B]
Percentage Phytotoxicity Spring Barley “Harrington” [2, 15]: 3%
Percentage Phytotoxicity Spring Barley “Harrington” [2, 16]: 10%
Percentage Phytotoxicity Spring Barley “Harrington” [2, 17]: 53%
Percentage Phytotoxicity Spring Barley “Harrington” [2, 18]: 23%
Percentage Phytotoxicity Winter Barley “Suzuka” [3, 15]: 3%
Percentage Phytotoxicity Winter Barley “Suzuka” [3, 16]: 9%
Percentage Phytotoxicity Winter Barley “Suzuka” [3, 17]: 75%
Percentage Phytotoxicity Winter Barley “Suzuka” [3, 18]: 13%
Percentage Phytotoxicity Winter Wheat “Hereward” [4, 15]: 7%
Percentage Phytotoxicity Winter Wheat “Hereward” [4, 16]: 10%
Percentage Phytotoxicity Winter Wheat “Hereward” [4, 17]: 58%
Percentage Phytotoxicity Winter Wheat “Hereward” [4, 18]: 13%
Post-emergence herbicidal activity, percentage phytotoxicity, ALOMY [5, 19]: 43%
Post-emergence herbicidal activity, percentage phytotoxicity, ALOMY [5, 20]: 58%
Post-emergence herbicidal activity, percentage phytotoxicity, ALOMY [5, 21]: 73%
Post-emergence herbicidal activity, percentage phytotoxicity, ALOMY [5, 22]: 70%
Post-emergence herbicidal activity, percentage phytotoxicity, AVEFA [6, 19]: 3%
Post-emergence herbicidal activity, percentage phytotoxicity, AVEFA [6, 20]: 10%
Post-emergence herbicidal activity, percentage phytotoxicity, AVEFA [6, 21]: 38%
Post-emergence herbicidal activity, percentage phytotoxicity, AVEFA [6, 22]: 48%
Post-emergence herbicidal activity, percentage phytotoxicity, LOLMU [7, 19]: 58%
Post-emergence herbicidal activity, percentage phytotoxicity, LOLMU [7, 20]: 73%
Post-emergence herbicidal activity, percentage phytotoxicity, LOLMU [7, 21]: 83%
Post-emergence herbicidal activity, percentage phytotoxicity, LOLMU [7, 22]: 73%
Post-emergence herbicidal activity, percentage phytotoxicity, POAAN [8, 19]: 0%
Post-emergence herbicidal activity, percentage phytotoxicity, POAAN [8, 20]: 0%
Post-emergence herbicidal activity, percentage phytotoxicity, POAAN [8, 21]: 4%
Post-emergence herbicidal activity, percentage phytotoxicity, POAAN [8, 22]: 4%
Post-emergence herbicidal activity, percentage phytotoxicity, SETVI [9, 19]: 40%
Post-emergence herbicidal activity, percentage phytotoxicity, SETVI [9, 20]: 65%
Post-emergence herbicidal activity, percentage phytotoxicity, SETVI [9, 21]: 68%
Post-emergence herbicidal activity, percentage phytotoxicity, SETVI [9, 22]: 68%
